Experiments:
Test in all cases: Test E greenhouse herbicide test, pre- and postemergence
Format in all cases: in vivo
[1] = test system: surinam grass (Brachiaria decumbens); conditions: Preemergence
How it was run: (§1)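 Compounds in surfactant-containing solvent are applied to soil right after sowing (silt loam) and, in parallel, to 1- to 4-leaf plants in a peat-based medium. Weed control is scored visually on a 0 (none) to 100 (complete) scale at 14 to 21 d.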

[2] = test system: johnsongrass (Sorghum halepense); conditions: Preemergence
How it was run: as §1

[3] = test system: field bindweed (Convolvulus arvensis)
How it was run: as §1

[4] = test system: momingglory (Ipomoea coccinea); conditions: Preemergence
How it was run: as §1

[5] = test system: goosegrass (Eleusine indica); conditions: Preemergence
How it was run: as §1

[6] = test system: sandbur (southem sandbur, Cenchrus echinatus)
How it was run: as §1

[7] = test system: ragweed (common ragweed, Ambrosia elatior)
How it was run: as §1

[8] = test system: arrowleaf sida (Sida rhombifolia)
How it was run: as §1

[9] = test system: beggarticks (hairy beggarticks, Bidens pilosa)
How it was run: as §1

[10] = test system: panicum, fall (fall panicum, Panicum dichotomiflorum)
How it was run: as §1

[11] = test system: nightshade (eastern black nightshade, Solanum ptycanthum); conditions: Preemergence
How it was run: as §1

[12] = test system: foxtail, giant (giant foxtail, Setaria faberii); conditions: Preemergence
How it was run: as §1

[13] = test system: kochia (Kochia scoparia)
How it was run: as §1

[14] = test system: crabgrass, large (large crabgrass, Digitaria sanguinalis); conditions: Preemergence
How it was run: as §1

[15] = test system: nutsedge, yellow (yellow nutsedge, Cyperus esculentus); conditions: Preemergence
How it was run: as §1

[16] = test system: barnyardgrass (Echinochloa crus-galli)
How it was run: as §1

[17] = test system: velvetleaf (Abutilon theophrasti); conditions: Preemergence
How it was run: as §1

[18] = 62 g ai/ha, scale 0 to 100 (0 no effect, 100 complete control)
[19] = 125 g ai/ha, scale 0 to 100 (0 no effect, 100 complete control)
[20] = 31 g ai/ha, scale 0 to 100, 0 no effect, 100 complete control
[21] = 250 g ai/ha, visual, scale 0 no effect to 100 complete control
[22] = 125 g ai/ha, visual, scale 0 no effect to 100 complete control
[23] = 62 g ai/ha, Postemergence, scale 0 to 100 (0 no effect, 100 complete control)
[24] = 62 g ai/ha, Preemergence, scale 0 to 100 (0 no effect, 100 complete control)
[25] = 125 g ai/ha, Postemergence, scale 0 to 100 (0 no effect, 100 complete control)
[26] = 250 g ai/ha, Postemergence, scale 0 to 100 (0 no effect, 100 complete control)
[27] = Postemergence, 31 g ai/ha, visual, scale 0 no effect to 100 complete control
[28] = Preemergence, 31 g ai/ha, scale 0 to 100, 0 no effect, 100 complete control
[29] = Preemergence, 125 g ai/ha, visual, scale 0 no effect to 100 complete control
[30] = Preemergence, 250 g ai/ha, visual, scale 0 no effect to 100 complete control
[31] = 125 g ai/ha, Preemergence, scale 0 to 100 (0 no effect, 100 complete control)

Cc1nn(C)c(=O)c(-c2ccc(F)c3ccccc23)c1O [Compound 41]
70: Plant response rating, Field Bindweed [3, 24] | Plant response rating, Sandbur [6, 24] | Plant response rating, Sandbur [6, 25] | Plant response rating, Ragweed [7, 24] | Plant response rating, Foxtail, Giant [12, 22] | Plant response rating, Crabgrass, Large [14, 18]
35: Plant response rating, Barnyardgrass [16, 23]
80: Plant response rating, Field Bindweed [3, 27] | Plant response rating, Sandbur [6, 30] | Plant response rating, Ragweed [7, 27] | Plant response rating, Panicum, Fall [10, 28] | Plant response rating, Nightshade [11, 18] | Plant response rating, Crabgrass, Large [14, 22]
100: Plant response rating, Ragweed [7, 30] | Plant response rating, Arrowleaf Sida [8, 30] | Plant response rating, Beggarticks [9, 26] | Plant response rating, Beggarticks [9, 27] | Plant response rating, Beggarticks [9, 29] | Plant response rating, Beggarticks [9, 30] | Plant response rating, Kochia [13, 29] | Plant response rating, Kochia [13, 30] | Plant response rating, Velvetleaf [17, 21]
30: Plant response rating, Field Bindweed [3, 28] | Plant response rating, Morningglory [4, 20] | Plant response rating, Panicum, Fall [10, 25] | Plant response rating, Foxtail, Giant [12, 20]
85: Plant response rating, Field Bindweed [3, 25] | Plant response rating, Arrowleaf Sida [8, 27] | Plant response rating, Nutsedge, Yellow [15, 21] | Plant response rating, Velvetleaf [17, 18]
95: Plant response rating, Surinam Grass [1, 21] | Plant response rating, Field Bindweed [3, 26] | Plant response rating, Morningglory [4, 21] | Plant response rating, Ragweed [7, 26] | Plant response rating, Arrowleaf Sida [8, 25] | Plant response rating, Beggarticks [9, 23] | Plant response rating, Beggarticks [9, 25] | Plant response rating, Panicum, Fall [10, 31] | Plant response rating, Kochia [13, 23] | Plant response rating, Kochia [13, 25] | Plant response rating, Kochia [13, 26] | Plant response rating, Velvetleaf [17, 19]
15: Plant response rating, Panicum, Fall [10, 27]
50: Plant response rating, Morningglory [4, 18] | Plant response rating, Goosegrass [5, 22] | Plant response rating, Sandbur [6, 23] | Plant response rating, Sandbur [6, 28] | Plant response rating, Arrowleaf Sida [8, 24] | Plant response rating, Panicum, Fall [10, 26] | Plant response rating, Barnyardgrass [16, 25]
40: Plant response rating, Barnyardgrass [16, 29]
75: Plant response rating, Surinam Grass [1, 18] | Plant response rating, Surinam Grass [1, 19] | Plant response rating, Field Bindweed [3, 29] | Plant response rating, Sandbur [6, 31] | Plant response rating, Sandbur [6, 26] | Plant response rating, Nutsedge, Yellow [15, 19]
25: Plant response rating, Johnsongrass [2, 21] | Plant response rating, Panicum, Fall [10, 23] | Plant response rating, Nightshade [11, 20] | Plant response rating, Nutsedge, Yellow [15, 20] | Plant response rating, Barnyardgrass [16, 24]
98: Plant response rating, Arrowleaf Sida [8, 29] | Plant response rating, Beggarticks [9, 24] | Plant response rating, Panicum, Fall [10, 30] | Plant response rating, Nightshade [11, 19] | Plant response rating, Nightshade [11, 21]
0: Plant response rating, Johnsongrass [2, 18] | Plant response rating, Johnsongrass [2, 20] | Plant response rating, Johnsongrass [2, 22] | Plant response rating, Goosegrass [5, 18] | Plant response rating, Goosegrass [5, 20]
90: Plant response rating, Field Bindweed [3, 23] | Plant response rating, Field Bindweed [3, 30] | Plant response rating, Morningglory [4, 19] | Plant response rating, Ragweed [7, 25] | Plant response rating, Ragweed [7, 31] | Plant response rating, Arrowleaf Sida [8, 23] | Plant response rating, Arrowleaf Sida [8, 26] | Plant response rating, Panicum, Fall [10, 24] | Plant response rating, Foxtail, Giant [12, 21] | Plant response rating, Kochia [13, 24] | Plant response rating, Kochia [13, 27] | Plant response rating, Kochia [13, 28]
65: Plant response rating, Beggarticks [9, 28] | Plant response rating, Foxtail, Giant [12, 18] | Plant response rating, Crabgrass, Large [14, 20] | Plant response rating, Nutsedge, Yellow [15, 18] | Plant response rating, Barnyardgrass [16, 30]
5: Plant response rating, Ragweed [7, 28]
10: Plant response rating, Surinam Grass [1, 20] | Plant response rating, Barnyardgrass [16, 28]
20: Plant response rating, Arrowleaf Sida [8, 28] | Plant response rating, Barnyardgrass [16, 27] | Plant response rating, Velvetleaf [17, 20]
60: Plant response rating, Goosegrass [5, 21] | Plant response rating, Sandbur [6, 27] | Plant response rating, Crabgrass, Large [14, 21] | Plant response rating, Barnyardgrass [16, 26]

Reference: patent publication US10597388B2, “Pyridazinone herbicides” (FMC CORPORATION, priority 2014, dated 2020)
